The test system of series [1] is Anti-inflammatory cytokines. The experiment in a line: Anti-inflammatory cytokines, summary (site not stated). Type of series: in vivo, pig. Set-up: key: + denotes a positive effect (compared to standard PN); ++ a very positive effect; − denotes no difference. The note with it: compared to standard PN. From the text:
(§1) Neonatal Yorkshire/Landrace cross bred piglets (n=72; six at a time from the same litter, repeating 12 times) were obtained from Oak Hill Genetics (Ewing, Ill.) after 48-hour sow reared for colostrum consumption and iron supplementation.
(§2) The influence of the respective supplements on inflammation was investigated by determining Il-6, Il-1beta, TNF-alpha and Il-10 serum levels in the intervention groups compared to EN and PN according to Milo et al., Effects of Short-Chain Fatty Acid-Supplemented Total Parenteral Nutrition on Intestinal Pro-Inflammatory Cytokine Abundance. Digestive Diseases and Sciences 2002; 47:2049-2055. Jejunal and ileal samples were homogenized in double-distilled water, and the Bradford protein assay (Biorad, Hercules, Calif., USA) was performed on homogenate and plasma samples. Protein (30 μg) from each sample was denatured by boiling, and proteins were separated by size using 12.5% sodium dodecyl sulfate polyacrylamide gel electrophoresis. Separated proteins were transferred to polyvinylidene difluoride membranes (Biorad) using a semidry transfer apparatus (Biorad). Western blot analysis for TNF-alpha, IL-1beta, Il-10 and IL-6 was performed using porcine-specific polyclonal antibodies (Endogen, Woburn, Mass., USA). A mouse anti-pig monoclonal TNF-alpha antibody was used to detect TNF-alpha ([…]). Rabbit anti-pig polyclonal antibodies specific for IL-1beta and IL-6 were used to detect IL-1beta (17,500 kDa), Il-10 (18,600 kDa) and IL-6 (26,000 kDa). Membranes were developed using the Opti-4CN kit (Biorad) and photographed using the FOTO/Analyst Image Analysis System (Fotodyne, Inc., Hartland, Wis., USA). Densitometry of TNF-alpha, IL-1beta, IL-6, and Il-10 was performed using Collage Image Analysis Software 4.0 (Fotodyne, Inc.). Results are shown in FIG. 15 (Il-6), FIG. 16 (Illbeta), FIG. 17 (TNF-alpha) and FIG. 18 (Il-10).

Series [2] deals with Il-10. The experiment in a line: Serum cytokine quantification, Il-10. In kind it is in vivo, pig.
Description: as §1, §2

For series [3], the system named is pro-inflammatory cytokines I1-1β, I1-6, TNF-α. The experiment in a line: Ileal cytokine concentration, pro-inflammatory. In kind it is in vivo, pig. The following applies: compared to standard PN (s-PN). Set-up: key: +++ indicate P < 0.01; ++ indicates P < 0.05; + indicates positive trends; = denotes no significant P value; − denotes negative trends.
Description: as §1, §2

The subject of series [4] is anti-inflammatory cytokines I1-8, I1-10. The experiment in a line: Ileal cytokine concentration, anti-inflammatory. In kind it is in vivo, pig. Further details: key: +++ indicate P < 0.01; ++ indicates P < 0.05; + indicates positive trends; = denotes no significant P value; − denotes negative trends. The note with it: compared to standard PN (s-PN).
Description: as §1, §2

In series [5] the test system is anti-inflammatory cytokines I1-10. The experiment in a line: Jejunal cytokine concentration, anti-inflammatory. Type of series: in vivo, pig. The following applies: compared to standard PN (s-PN). Set-up: key: +++ indicate P < 0.01; ++ indicates P < 0.05; + indicates positive trends; = denotes no significant P value; − denotes negative trends.
Description: as §1, §2

Series [6] relates to pro-inflammatory cytokines I1-1β, I1-6, TNF-α. The experiment in a line: Jejunal cytokine concentration, pro-inflammatory. In kind it is in vivo, pig. The following applies: compared to standard PN (s-PN).
Description: as §1, §2

The test system of series [7] is TNF-alpha. The experiment in a line: Serum cytokine quantification, TNF-alpha. The note with it: 10 mmol/L TPN (Group C). Type of series: in vivo, pig.
Description: as §1
as §2, with “Rabbit anti-pig polyclonal antibodies specific for IL-1beta and IL-6 were used to detect IL-1beta (17,500 kDa), Il-10 (18,600 kDa) and IL-6 (26,000 kDa). Membranes were developed using the Opti-4CN kit (Biorad) and photographed using the FOTO/Analyst Image Analysis System (Fotodyne, Inc., Hartland, Wis., USA). Densitometry of TNF-alpha, IL-1beta, IL-6, and Il-10 was performed using Collage Image Analysis Software 4.0 (Fotodyne, Inc.). Results are shown in FIG. 15 (Il-6), FIG. 16 (Illbeta), FIG. 17 (TNF-alpha) and FIG. 18 (Il-10).” left out

The test system of series [8] is Il-1beta. The experiment in a line: Serum cytokine quantification, Il-1beta. Type of series: in vivo, pig. The following applies: 10 mmol/L TPN (Group C).
Description: as §1
as §2, with “Rabbit anti-pig polyclonal antibodies specific for IL-1beta and IL-6 were used to detect IL-1beta (17,500 kDa), Il-10 (18,600 kDa) and IL-6 (26,000 kDa). Membranes were developed using the Opti-4CN kit (Biorad) and photographed using the FOTO/Analyst Image Analysis System (Fotodyne, Inc., Hartland, Wis., USA). Densitometry of TNF-alpha, IL-1beta, IL-6, and Il-10 was performed using Collage Image Analysis Software 4.0 (Fotodyne, Inc.). Results are shown in FIG. 15 (Il-6), FIG. 16 (Illbeta), FIG. 17 (TNF-alpha) and FIG. 18 (Il-10).” left out

The test system of series [9] is Il-6. The experiment in a line: Serum cytokine quantification, Il-6. In kind it is in vivo, pig. The following applies: 10 mmol/L TPN (Group C).
Description: as §1
as §2, with “Rabbit anti-pig polyclonal antibodies specific for IL-1beta and IL-6 were used to detect IL-1beta (17,500 kDa), Il-10 (18,600 kDa) and IL-6 (26,000 kDa). Membranes were developed using the Opti-4CN kit (Biorad) and photographed using the FOTO/Analyst Image Analysis System (Fotodyne, Inc., Hartland, Wis., USA). Densitometry of TNF-alpha, IL-1beta, IL-6, and Il-10 was performed using Collage Image Analysis Software 4.0 (Fotodyne, Inc.). Results are shown in FIG. 15 (Il-6), FIG. 16 (Illbeta), FIG. 17 (TNF-alpha) and FIG. 18 (Il-10).” left out

The subject of series [10] is metastatic colorectal cancer patients. The following applies: aqueous solution, pH 7.7, phase I clinical trial; cited from earlier work.
For series [11] the following is noted: cited from earlier work.

In the case of `CCCCCCCCCCCCCCCC(=O)OCC(COC(=O)CCC)OC(=O)CCCCCCCCCCCCCCC` (centres unmarked) [1,2-Dipalmitoyl 3-butyryl glycerol], in [1] (10 mmol/L in PN), the Anti-inflammatory cytokines result was “+”. Also, in [2] (10 mmol/L TPN (Groups A, C, D)), the “serum levels of Il-10 (FIG. 18)” value is given as “almost or about as low”.

Regarding `CCCC(=O)OCC(COC(=O)CCC)OC(=O)CCC` [Tributyrin], the Anti-inflammatory cytokines result was “−” in series [1] (10 mmol/L in PN) and “+” in [1] (30 mmol/L in PN). Moreover, the “Ileal Cytokine Concentration (less pro-inflammatory cytokines I1-1β, I1-6, TNF-α)” value in series [3] (10 mmol/L) is on record as “=”; in series [3] (30 mmol/L), “+”. Further, the “Ileal Cytokine Concentration (more anti-inflammatory cytokines I1-8, I1-10)” value in series [4] (10 mmol/L) is “−”; in series [4] (30 mmol/L), “+”. Besides, the entries for the “Jejunal Cytokine Concentration (more anti-inflammatory cytokines I1-8, I1-10)” value in series [5] (10 mmol/L) and in [5] (30 mmol/L) were “=” and “+”, respectively. Further, the “serum levels of Il-10 (FIG. 18)” value was “lower than in the standard PN Group P” in series [2] (10 mmol/L TPN (Groups A, C, D)) and “lower than in the standard PN Group P” in series [2] (30 mmol/L TPN (Group B)). Also, the “Jejunal Cytokine Concentration (less pro-inflammatory cytokines I1-1β, I1-6, TNF-α)” value in series [6] (10 mmol/L) and in [6] (30 mmol/L) was “++ (++ indicates P < 0.05)” each time.

Consider “L-arginine, butanoate (3:4) [Arginine butyrate]”, for which the “serum levels of TNF-alpha (FIG. 17)” value in series [7] is “lower than in the other Study (or intervention) Groups”. In addition, the Anti-inflammatory cytokines entry in series [1] (10 mmol/L in PN) was “++”. The “Ileal Cytokine Concentration (less pro-inflammatory cytokines I1-1β, I1-6, TNF-α)” value in series [3] (10 mmol/L) is “++ (++ indicates P < 0.05)”. For the same molecule, in series [8], the “serum levels of Il1-beta (FIG. 16)” value is on record as “significantly lower than in the standard PN group”. The “Ileal Cytokine Concentration (more anti-inflammatory cytokines I1-8, I1-10)” value in series [4] (10 mmol/L) is reported as “+^4”. The “Jejunal Cytokine Concentration (more anti-inflammatory cytokines I1-8, I1-10)” value in series [5] (10 mmol/L) was “++ (++ indicates P < 0.05)”. Further, the “serum levels of Il-10 (FIG. 18)” value in series [2] (10 mmol/L TPN (Groups A, C, D)) is given as “lower than in the standard PN Group P”. In addition, the “serum levels of Il-6 (FIG. 15)” value in series [9] was “significantly lower than in the standard PN group”. Also, the tolerated dose in series [10] is on record as 3 g/kg/day. The “Jejunal Cytokine Concentration (less pro-inflammatory cytokines I1-1β, I1-6, TNF-α)” value in [6] (10 mmol/L) is listed as “+++ (+++ indicate P < 0.01)”. Besides, the clearance rate in [11] (human, in vivo) was 93.6 ± 31.9 mL/min/kg. Also, the steady state concentration in [11] (infusion rate of 2000 mg/kg/day, patients with hemoglobinopathy) was 15.7 ± 4.8 mg/L.

These data come from patent publication US20220160669A1, “PARENTERAL NUTRITION FORMULATION” (BAXTER INTERNATIONAL INC., priority 2020, published 2022).
